Laboratory results from publication PMC8878317, “Chemogenomics identifies acetyl-coenzyme A synthetase as a target for malaria treatment and prevention” (Cell Chemical Biology, 2022).

Test system: P. falciparum 3D7 parasites
Test: Metabolomic profiling of compound-treated parasites (LC/MS);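 as to Metabolite data: 3-Phosphoglycerate: Log2 fold change in abundance versus untreated parasite controls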;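 as to Metabolite data: Myo-Inositol: Log2 fold change in abundance versus untreated parasite controls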;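 as to Metabolite data: N-Carbamoyl-L-Aspartate: Log2 fold change in abundance versus untreated parasite controls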;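 as to Metabolite data: Nicotinate: Log2 fold change in abundance versus untreated parasite controls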
Assay type: cell-based
Parameters: Metabolite data: dTMP / Metabolite data: GMP / Metabolite data: S-Adenosyl-L-Homocysteine / Metabolite data: 1_3-Bisphosphoglyceric acid: scale not given here
Outline: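 Magnetically purified trophozoites (1×10^8 parasites/mL) recovered 1 h in RPMI 1640, incubated a further 2.5 h, quenched in 90% methanol with labeled aspartate. Extracts analysed by reverse-phase C18 LC with negative-mode Orbitrap MS; peak areas normalized to internal standards, blank-subtracted and averaged by condition.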

O=C1C(O)=C([C@H]2CC[C@H](c3ccc(Cl)cc3)CC2)C(=O)c2ccccc21 [Atovaquone, reference compound]
Metabolite data: 1_3-Bisphosphoglyceric acid: 0 | Metabolite data: 2_3-Diphosphoglyceric acid: -0.24 | Metabolite data: 3-Phosphoglycerate: 0 | Metabolite data: 4-Aminobutyrate: 0.16 | Metabolite data: 4-Phosphopantothenate: -0.34 | Metabolite data: 4-phosphopantetheine: 0 | Metabolite data: 5-aminopentanoic acid: 0 | Metabolite data: 5-phosphoribosyl-1-pyrophosphate: 0 | Metabolite data: 6-Phospho-D-Gluconate: 0.06 | Metabolite data: ADP-D-Glucose: 0.04 | Metabolite data: Acetyl-CoA: -0.68 | Metabolite data: Acetyllysine: -0.01 | Metabolite data: Aconitate: 0.31 | Metabolite data: CDP: -0.84 | Metabolite data: CDP-Ethanolamine: -0.15 | Metabolite data: CDP-choline: 0 | Metabolite data: CMP: -0.8 | Metabolite data: CTP: -0.85 | Metabolite data: Citrate/Isocitrate: -0.17 | Metabolite data: Cyclic-AMP: 0.13 | Metabolite data: Dihydroorotate: 4.84 | Metabolite data: FAD: 0.09 | Metabolite data: FMN: -1.11 | Metabolite data: Fructose-1,6-Bisphosphate: 0.15 | Metabolite data: Fumarate: 0.18 | Metabolite data: GDP: -0.12 | Metabolite data: GMP: 0.4 | Metabolite data: GTP: 0.09 | Metabolite data: Glucose-1/6-Phosphate: -0.03 | Metabolite data: Glutathione Disulfide: 0.11 | Metabolite data: Hexose: 0 | Metabolite data: Hydroxyisocaproic acid: 0 | Metabolite data: Indole: 0.06 | Metabolite data: Ketoleucine: 0 | Metabolite data: L-arginino-succinate: 0 | Metabolite data: Lactate: 0.09 | Metabolite data: Malate: 0.05 | Metabolite data: Myo-Inositol: -0.06 | Metabolite data: N-Acetyl-Glutamate: 0.13 | Metabolite data: N-Acetyl-L-Alanine: 0.22 | Metabolite data: N-Acetyl-L-Ornithine: -0.16 | Metabolite data: N-Carbamoyl-L-Aspartate: 4.58 | Metabolite data: NAD+: 0.08 | Metabolite data: NADH: 1.7 | Metabolite data: NADP+: -0.1 | Metabolite data: NADPH: 0.32 | Metabolite data: Nicotinate: -0.09 | Metabolite data: Octulose 8/1-Phosphate: -0.01 | Metabolite data: Orotate: 0.81 | Metabolite data: PD: 0 | Metabolite data: PE: 0 | Metabolite data: PEEK: 0 | Metabolite data: Phenol Red: 0 | Metabolite data: Pyroglutamic acid: 0.06 | Metabolite data: S-Adenosyl-L-Homocysteine: 0.32 | Metabolite data: S-methyl-5'-thioadenosine: -0.26 | Metabolite data: SD: 0 | Metabolite data: Sedoheptulose Bisphosphate: 0.01 | Metabolite data: UDP: -1.17 | Metabolite data: UDP-D-Glucose: -0.06 | Metabolite data: UDP-D-Glucuronate: -0.13 | Metabolite data: UDP-N-Acetyl-Glucosamine: -0.25 | Metabolite data: UMP: -0.68 | Metabolite data: UTP: -1.12 | Metabolite data: a-ketoglutarate: -0.04 | Metabolite data: acetyl-aspartate: 0 | Metabolite data: arginine: 0 | Metabolite data: asparagine: 0 | Metabolite data: aspartate: 0 | Metabolite data: biotin: 0 | Metabolite data: chlorpropamide: 0 | Metabolite data: coenzyme A: 0 | Metabolite data: dAMP: -0.09 | Metabolite data: dATP: 0.28 | Metabolite data: dCDP: -0.01 | Metabolite data: dCMP: -0.39 | Metabolite data: dCTP: -0.38 | Metabolite data: dGDP/ADP: 0 | Metabolite data: dGMP/AMP: -0.1 | Metabolite data: dGTP/ATP: 0 | Metabolite data: dTDP: -0.95 | Metabolite data: dTMP: -0.81 | Metabolite data: dTTP: -0.98 | Metabolite data: folate: 0 | Metabolite data: glucono-lactone: 0 | Metabolite data: glutamate: 0 | Metabolite data: glutamine: 0 | Metabolite data: glutathione: 0 | Metabolite data: histidine: 0 | Metabolite data: hydroxyproline/Aminolevulinate: 0 | Metabolite data: isoleucine: 0 | Metabolite data: leucine: 0 | Metabolite data: maleic acid: 0 | Metabolite data: methionine: 0 | Metabolite data: nicotinamide mononucleotide: 0 | Metabolite data: orotidine-5'-phosphate: 0
